Experimental data from publication PMC6047530 (Journal of medicinal chemistry, 2018).
“Also recorded” adds a separate entry of the source.

Tests used:
[1] = tested on: OVCAR8 (BRCA1-methylated) cell line; experiment: Cytotoxicity screen in OVCAR8 cells at 10 μM; format: cell-based
[2] = tested on: MEF PARP-1 KO−/− cells; experiment: Cell viability assay in MEF PARP-1 KO−/− cells; format: cell-based, mouse; details: for EC50: Mus musculus, read-out: PARP-1−/− EC50; for cell death, in words: MEF PARP-1 KO−/−
[3] = target: PARP-1 (Homo sapiens, UniProt P09874); experiment: PARP-1 radioligand binding; details: 10c vs 10a; 15b vs 15a
PARP-1, sequence (P09874 whole entry): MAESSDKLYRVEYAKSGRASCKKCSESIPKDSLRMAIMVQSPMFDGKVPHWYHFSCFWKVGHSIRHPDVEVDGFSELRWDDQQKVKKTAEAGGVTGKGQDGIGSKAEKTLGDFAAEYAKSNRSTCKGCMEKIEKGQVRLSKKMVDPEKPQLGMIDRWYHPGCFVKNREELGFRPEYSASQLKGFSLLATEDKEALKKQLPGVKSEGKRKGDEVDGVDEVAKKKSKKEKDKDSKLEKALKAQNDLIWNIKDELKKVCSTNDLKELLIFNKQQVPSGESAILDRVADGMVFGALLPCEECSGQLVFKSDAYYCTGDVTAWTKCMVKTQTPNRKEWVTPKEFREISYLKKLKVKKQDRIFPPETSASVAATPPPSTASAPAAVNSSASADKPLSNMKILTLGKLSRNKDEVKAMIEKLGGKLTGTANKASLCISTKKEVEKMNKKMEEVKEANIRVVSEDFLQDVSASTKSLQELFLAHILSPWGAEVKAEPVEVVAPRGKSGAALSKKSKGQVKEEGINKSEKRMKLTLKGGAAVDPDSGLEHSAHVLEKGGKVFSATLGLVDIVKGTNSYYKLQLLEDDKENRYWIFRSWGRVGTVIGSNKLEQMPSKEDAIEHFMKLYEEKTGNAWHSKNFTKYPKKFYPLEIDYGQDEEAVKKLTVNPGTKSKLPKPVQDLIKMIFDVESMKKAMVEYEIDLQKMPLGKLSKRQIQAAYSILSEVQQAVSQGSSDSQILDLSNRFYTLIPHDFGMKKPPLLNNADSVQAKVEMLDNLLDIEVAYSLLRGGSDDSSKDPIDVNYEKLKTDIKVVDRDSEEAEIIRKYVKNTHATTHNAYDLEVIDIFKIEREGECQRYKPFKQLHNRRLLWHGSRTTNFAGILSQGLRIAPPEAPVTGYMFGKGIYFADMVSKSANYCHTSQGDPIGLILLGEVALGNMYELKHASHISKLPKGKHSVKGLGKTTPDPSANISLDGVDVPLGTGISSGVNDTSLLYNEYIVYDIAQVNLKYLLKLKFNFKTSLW

[4] = tested on: MEF WT cells; experiment: Cell viability assay in MEF WT cells; format: cell-based, mouse; details: for cell death, in words: MEF WT; for EC50: Mus musculus, read-out: WT EC50
[5] = tested on: MEF PARP-2 KO−/− cells; experiment: Cell viability assay in MEF PARP-2 KO−/− cells; format: cell-based; details: Mus musculus, read-out: PARP-2−/− EC50
[6] = tested on: UWB1.289 cells; experiment: Cell viability assay in UWB1.289; format: cell-based; details: UWB1.289 isogenic cell lines
[7] = tested on: poly(ADP-ribose) (PAR), biochemical product of PARP-1; experiment: Western blot analysis of PAR expression in OVCAR8 cells; format: cell-based; details: OVCAR8 cells treated 6 h
[8] = tested on: γH2AX foci in OVCAR8 cells; experiment: Immunofluorescent cell microscopy of γH2AX foci; format: cell-based; details: 0.01-10 μM, 24 hrs
[9] = tested on: other PARPs; experiment: PARPs enzyme inhibition panel at 10 μM; format: biochemical

SMILES | EC50 [2] [µM] | EC50 [4] [µM] | other results
O=C(c1cc(Cc2n[nH]c(=O)c3ccccc23)ccc1F)N1CC2(CCC2)C1 [Compound 10a, 4-(4-Fluoro-3-(2-azaspiro[3.3]heptane-2-carbonyl)benzyl)phthalazin-1(2H)-one] | > 100 | – | cytotoxicity / anti-proliferative activity (in words) [1]: poor cytotoxic properties
O=C(c1cc(Cc2n[nH]c(=O)c3ccccc23)ccc1F)N1CC2(COC2)C1 [Compound 10b, 4-(4-Fluoro-3-(2-oxa-6-azaspiro[3.3]heptane-6-carbonyl)benzyl)phthalazin-1(2H)-one] | > 100 | – | –
CC(C)(C)OC(=O)N1CC2(C1)CN(C(=O)c1cc(Cc3n[nH]c(=O)c4ccccc34)ccc1F)C2 [Compound 10c, Tert-butyl 6-(2-fluoro-5-((4-oxo-3,4-dihydrophthalazin-1-yl)methyl)benzoyl)-2,6-diazaspiro[3.3]heptane-2-carboxylate] | > 100 | – | fold lower PARP-1 affinity compared to methylene congener [3]: ~ 16 fold
O=C(c1cc(Cc2n[nH]c(=O)c3ccccc23)ccc1F)N1CC2(CNC2)C1 [Compound 10d, 4-(4-Fluoro-3-(2,6-diazaspiro[3.3]heptane-2-carbonyl)benzyl)phthalazin-1(2H)-one] | > 100 | > 100 | cell death, in words [4]: no cell death was observed; cell death, in words [2]: no cell death was observed; EC50 [5]: > 100 µM
O=C(c1cc(Cc2n[nH]c(=O)c3ccccc23)ccc1F)N1CC2(C1)CN(C(=O)C1CC1)C2 [Compound 10e, 4-(3-(6-(Cyclopropanecarbonyl)-2,6-diazaspiro[3.3]heptane-2-carbonyl)-4-fluorobenzyl)phthalazin-1(2H)-one] | > 100 | > 100 | cell death, in words [4]: no measurable cell death; cell death, in words [2]: no measurable cell death; cytotoxic concentration (EC50) relative to olaparib [6]: approximately 7 fold; inhibition of PARP activity (PAR synthesis), in words [7]: inhibit PARP activity in a manner similar to olaparib; DNA damage (γ-H2AX foci), in words [8]: did not induce DNA damage at similar drug concentrations as olaparib; also recorded: unable to induce DNA damage at concentrations as high as 10 μM; off-target enzymatic inhibition of other PARPs, in words [9]: minimal off-target activity; also recorded: less enzymatic inhibition with most other PARPs
O=C(c1cc(Cc2n[nH]c(=O)c3ccccc23)ccc1F)N1CCC12CCC2 [Compound 11a, 4-(4-Fluoro-3-(1-azaspiro[3.3]heptane-1-carbonyl)benzyl)phthalazin-1(2H)-one] | > 100 | – | –
CC(C)(C)OC(=O)N1CC2(CCN2C(=O)c2cc(Cc3n[nH]c(=O)c4ccccc34)ccc2F)C1 [Compound 11b, Tert-butyl 1-(2-fluoro-5-((4-oxo-3,4-dihydrophthalazin-1-yl)methyl)benzoyl)-1,6-diazaspiro[3.3]heptane-6-carboxylate] | > 100 | – | –
O=C(c1cc(Cc2n[nH]c(=O)c3ccccc23)ccc1F)N1CCC12CNC2 [Compound 11c, 4-(4-Fluoro-3-(1,6-diazaspiro[3.3]heptane-1-carbonyl)benzyl)phthalazin-1(2H)-one] | > 100 | > 100 | EC50 [5]: > 100 µM
O=C(C1CC1)N1CC2(CCN2C(=O)c2cc(Cc3n[nH]c(=O)c4ccccc34)ccc2F)C1 [Compound 11d, 4-(3-(6-(Cyclopropanecarbonyl)-1,6-diazaspiro[3.3]heptane-1-carbonyl)-4-fluorobenzyl)phthalazin-1(2H)-one] | > 100 | – | –
O=C(c1cc(Cc2n[nH]c(=O)c3ccccc23)ccc1F)N1CC2(CCCCC2)C1 [Compound 12a, 4-(4-Fluoro-3-(2-azaspiro[3.5]nonane-2-carbonyl)benzyl)phthalazin-1(2H)-one] | – | – | cytotoxicity / anti-proliferative activity (in words) [1]: poor cytotoxic properties
O=C(c1cc(Cc2n[nH]c(=O)c3ccccc23)ccc1F)N1CC2(CCNCC2)C1 [Compound 12c, 4-(4-Fluoro-3-(2,7-diazaspiro[3.5]nonane-2-carbonyl)benzyl)phthalazin-1(2H)-one] | > 100 | > 100 | –
O=C(c1cc(Cc2n[nH]c(=O)c3ccccc23)ccc1F)N1CC2(CCN(C(=O)C3CC3)CC2)C1 [Compound 12d, 4-(3-(7-(Cyclopropanecarbonyl)-2,7-diazaspiro[3.5]nonane-2-carbonyl)-4-fluorobenzyl)phthalazin-1(2H)-one] | > 100 | – | –
O=C(c1cc(Cc2n[nH]c(=O)c3ccccc23)ccc1F)N1CCC12CCCCC2 [Compound 13a, 4-(4-Fluoro-3-(1-azaspiro[3.5]nonane-1-carbonyl)benzyl)phthalazin-1(2H)-one] | > 100 | – | –
CC(C)(C)OC(=O)N1CCC2(CC1)CCN2C(=O)c1cc(Cc2n[nH]c(=O)c3ccccc23)ccc1F [Compound 13b, Tert-butyl 1-(2-fluoro-5-((4-oxo-3,4-dihydrophthalazin-1-yl)methyl)benzoyl)-1,7-diazaspiro[3.5]nonane-7-carboxylate] | > 100 | – | –
O=C(c1cc(Cc2n[nH]c(=O)c3ccccc23)ccc1F)N1CCC12CCNCC2 [Compound 13c, 4-(4-Fluoro-3-(1,7-diazaspiro[3.5]nonane-1-carbonyl)benzyl)phthalazin-1(2H)-one] | > 100 | > 100 | –
O=C(C1CC1)N1CCC2(CC1)CCN2C(=O)c1cc(Cc2n[nH]c(=O)c3ccccc23)ccc1F [Compound 13d, 4-(3-(7-(Cyclopropanecarbonyl)-1,7-diazaspiro[3.5]nonane-1-carbonyl)-4-fluorobenzyl)phthalazin-1(2H)-one] | > 100 | – | –
O=C(c1cc(Cc2n[nH]c(=O)c3ccccc23)ccc1F)N1CCC2(CCCC2)C1 [Compound 15a, 4-(4-Fluoro-3-(2-azaspiro[4.4]nonane-2-carbonyl)benzyl)phthalazin-1(2H)-one] | > 100 | – | –
CC(C)(C)OC(=O)N1CCC2(CCN(C(=O)c3cc(Cc4n[nH]c(=O)c5ccccc45)ccc3F)C2)C1 (centres unmarked) [Compound 15b, Tert-butyl 7-(2-fluoro-5-((4-oxo-3,4-dihydrophthalazin-1-yl)methyl)benzoyl)-2,7-diazaspiro[4.4]nonane-2-carboxylate] | – | – | fold lower PARP-1 affinity compared to methylene congener [3]: ~ 85 fold; inhibition of PARP activity (PAR synthesis), in words [7]: inhibit PARP activity in a manner similar to olaparib; DNA damage (γ-H2AX foci), in words [8]: induced DNA damage at micromolar concentrations; also recorded: induced DNA damage in a dose dependent manner
O=C(c1cc(Cc2n[nH]c(=O)c3ccccc23)ccc1F)N1CCC2(CCNC2)C1 (centres unmarked) [Compound 15c, 4-(4-Fluoro-3-(2,7-diazaspiro[4.4]nonane-2-carbonyl)benzyl)phthalazin-1(2H)-one] | > 100 | > 100 | –
O=C(c1cc(Cc2n[nH]c(=O)c3ccccc23)ccc1F)N1CCC2(CCN(C(=O)C3CC3)C2)C1 (centres unmarked) [Compound 15d, 4-(3-(7-(Cyclopropanecarbonyl)-2,7-dizaspiro[4.4]nonane-2-carbonyl)-4-fluorobenzyl)phthalazin-1(2H)-one] | > 100 | > 100 | –
O=C(c1cc(Cc2n[nH]c(=O)c3ccccc23)ccc1F)N1CCC2(CCNCC2)C1 [Compound 16c, 4-(4-Fluoro-3-(2,8-diazaspiro[4.5]decane-2-carbonyl)benzyl)phthalazin-1(2H)-one] | > 100 | > 100 | EC50 [5]: > 100 µM
O=C(c1cc(Cc2n[nH]c(=O)c3ccccc23)ccc1F)N1CCC2(CCN(C(=O)C3CC3)CC2)C1 [Compound 16d, 4-(3-(8-(Cyclopropanecarbonyl)-2,8-diazaspiro[4.5]decane-2-carbonyl)-4-fluorobenzyl)phthalazin-1(2H)-one] | > 100 | – | –
O=C(c1cc(Cc2n[nH]c(=O)c3ccccc23)ccc1F)N1CCC2(CCCCC2)CC1 [Compound 17a, 4-(4-Fluoro-3-(3-azaspiro[5.5]undecane-3-carbonyl)benzyl)phthalazin-1(2H)-one] | > 100 | – | –
O=C(c1cc(Cc2n[nH]c(=O)c3ccccc23)ccc1F)N1CCC2(CCNCC2)CC1 [Compound 17c, 4-(4-Fluoro-3-(3,9-diazaspiro[5.5]undecane-3-carbonyl)benzyl)phthalazin-1(2H)-one] | > 100 | > 100 | –
O=C(c1cc(Cc2n[nH]c(=O)c3ccccc23)ccc1F)N1CCC2(CC1)CCN(C(=O)C1CC1)CC2 [Compound 17d, 4-(3-(9-(Cyclopropanecarbonyl)-3,9-diazaspiro[5.5]undecane-3-carbonyl)-4-fluorobenzyl)phthalazin-1(2H)-one] | – | – | cytotoxicity / anti-proliferative activity (in words) [1]: poor cytotoxic properties
O=C(c1cc(Cc2n[nH]c(=O)c3ccccc23)ccc1F)N1CCN(C(=O)C2CC2)CC1 [olaparib, reference compound] | – | – | DNA damage (γ-H2AX foci), in words [8]: induced DNA damage in a dose dependent manner
